Test results as given in PMC10105399 (European Journal of Medicinal Chemistry, 2023).
pIC50: −log10 of the molar value.

How the values were obtained:
[1] = tested on: alpha-chymotrypsin; format: biochemical, human; conditions: read-out: IC50 Chymo-trypsin
[2] = biological target: SARS-CoV-2 3CLpro (Severe acute respiratory syndrome coronavirus 2, UniProt P0DTD1); format: biochemical
[3] = biological target: MERS-CoV 3CLpro (Middle East respiratory syndrome-related coronavirus, UniProt K9N7C7); format: biochemical
Chain of MERS-CoV 3CLpro (K9N7C7 3248-3553 limits assumed): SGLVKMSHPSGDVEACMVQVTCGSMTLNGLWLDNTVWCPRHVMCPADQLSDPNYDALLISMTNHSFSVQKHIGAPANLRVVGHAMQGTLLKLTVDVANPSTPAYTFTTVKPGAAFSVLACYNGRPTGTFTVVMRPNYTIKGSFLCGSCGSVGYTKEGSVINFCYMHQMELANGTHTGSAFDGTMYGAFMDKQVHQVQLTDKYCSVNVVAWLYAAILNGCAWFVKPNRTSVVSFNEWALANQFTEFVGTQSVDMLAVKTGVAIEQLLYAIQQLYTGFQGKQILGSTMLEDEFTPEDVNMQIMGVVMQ

CC(C)C[C@H](NC(=O)OCC(C)(C)Oc1ccc(F)cc1)C(=O)N[C@H](C=O)C[C@@H]1CCNC1=O [15c, 2-(4-Fluorophenoxy)-2-methylpropyl ((S)-4-methyl-1-oxo-1-(((S)-1-oxo-3-((S)-2-oxopyrrolidin-3-yl)propan-2-yl)amino)pentan-2-yl)carbamate]
pIC50 [1]: < 4.30

CC(C)C[C@H](NC(=O)OCC(C)(C)Oc1cccc(Cl)c1)C(=O)N[C@H](C=O)C[C@@H]1CCNC1=O [13c, 2-(3-Chlorophenoxy)-2-methylpropyl ((S)-4-methyl-1-oxo-1-(((S)-1-oxo-3-((S)-2-oxopyrrolidin-3-yl)propan-2-yl)amino)pentan-2-yl)carbamate]
pIC50 [1]: < 4.30

CC(C)C[C@H](NC(=O)OCC(C)(C)Sc1ccccc1)C(=O)N[C@H](C=O)C[C@@H]1CCNC1=O [1c, 2-Methyl-2-(phenylthio)propyl ((S)-4-methyl-1-oxo-1-(((S)-1-oxo-3-((S)-2-oxopyrrolidin-3-yl)propan-2-yl)amino)pentan-2-yl)carbamate]
fold higher potency than 8c against SARS-CoV-2 3CLpro [2]: 4.6 fold
fold higher potency than 8c against MERS-CoV 3CLpro [3]: ~2 fold
pIC50 [1]: < 4.30

CC(C)C[C@H](NC(=O)OCC(C)(C)Sc1cccc(Cl)c1)C(=O)N[C@H](C=O)C[C@@H]1CCNC1=O [7c, 2-((3-Chlorophenyl)thio)-2-methylpropyl ((S)-4-methyl-1-oxo-1-(((S)-1-oxo-3-((S)-2-oxopyrrolidin-3-yl)propan-2-yl)amino)pentan-2-yl)carbamate]
pIC50 [1]: < 4.30

CC(C)C[C@H](NC(=O)OCC(C)(C)Oc1ccccc1)C(=O)N[C@H](C=O)C[C@@H]1CCNC1=O [10c, 2-Methyl-2-phenoxypropyl ((S)-4-methyl-1-oxo-1-(((S)-1-oxo-3-((S)-2-oxopyrrolidin-3-yl)propan-2-yl)amino)pentan-2-yl)carbamate]
fold less active than 1c against SARS-CoV-2 3CLpro [2]: more than 4 fold
fold more potent than 1c against MERS-CoV 3CLpro [3]: 2 fold

[2H]C([2H])(OC(=O)N[C@@H](CC(C)C)C(=O)N[C@H](C=O)C[C@@H]1CCNC1=O)C(C)(C)Oc1ccc(Cl)cc1 [12c, 2-(4-Chlorophenoxy)-2-methylpropyl-1,1-d2 ((S)-4-methyl-1-oxo-1-(((S)-1-oxo-3-((S)-2-oxopyrrolidin-3-yl)propan-2-yl)amino)pentan-2-yl)carbamate]
pIC50 [1]: < 4.30

[2H]C([2H])(OC(=O)N[C@@H](CC(C)C)C(=O)N[C@H](C=O)C[C@@H]1CCNC1=O)C(C)(C)Sc1ccccc1 [2c, 2-Methyl-2-(phenylthio)propyl-1,1-d2 ((S)-4-methyl-1-oxo-1-(((S)-1-oxo-3-((S)-2-oxopyrrolidin-3-yl)propan-2-yl)amino)pentan-2-yl)carbamate]
pIC50 [1]: < 4.30

CC(C)C[C@H](NC(=O)OCC(C)(C)Sc1ccccc1)C(=O)N[C@H](C#N)C[C@@H]1CCNC1=O [1g, 2-Methyl-2-(phenylthio)propyl ((S)-1-(((S)-1-cyano-2-((S)-2-oxopyrrolidin-3-yl)ethyl)amino)-4-methyl-1-oxopentan-2-yl)carbamate]
pIC50 [1]: < 4.30

CC(C)C[C@H](NC(=O)OCC(C)(C)Sc1ccccc1)C(=O)N[C@@H](C[C@@H]1CCNC1=O)C(=O)C(=O)NC1CC1 [1e, 2-Methyl-2-(phenylthio)propyl ((S)-1-(((S)-4-(cyclopropylamino)-3,4-dioxo-1-((S)-2-oxopyrrolidin-3-yl)butan-2-yl)amino)-4-methyl-1-oxopentan-2-yl)carbamate]
pIC50 [1]: < 4.30

CC(C)C[C@H](NC(=O)OCC(C)(C)Sc1nc2ccccc2[nH]1)C(=O)N[C@H](C=O)C[C@@H]1CCNC1=O [9c, 2-((1H-benzo[d]imidazole-2-yl)thio)-2-methylpropyl ((S)-4-methyl-1-oxo-1-(((S)-1-oxo-3-((S)-2-oxopyrrolidin-3-yl)propan-2-yl)amino)pentan-2-yl)carbamate]
fold less active than 1c against SARS-CoV-2 3CLpro [2]: more than 4 fold
fold reduction in potency relative to 1c against MERS-CoV 3CLpro [3]: 1.5 fold
